Article PMC9571594, “Development of Semisynthetic Apoptosis-Inducing Agents Based on Natural Phenolic Acids Scaffold: Design, Synthesis and In-Vitro Biological Evaluation” (Molecules, 2022)
Read-outs that look alike come from different tables or passages of the source.

Columns and labels:
MCF-7 cells = experiment: MTT cell viability assay, MCF-7; format: cell-based, Human; settings: Homo sapiens, MCF7; MTT, 48 h, average of triplicates; read-out: IC50 (μM) ± SD MCF-7
Procedure: (§1) MCF-7 cells (Human breast adenocarcinoma), HepG2 (human hepatocellular carcinoma), A549 (human lung adenocarcinoma), Caco-2 (colon carcinoma), PANC-1 (human pancreatic cancer), and Vero cells (derived from normal kidney cells) were supplied by (Holding Company for Biological Products and Vaccines VACSERA; Giza, Egypt). The cells were cultured in PRMI 1640 medium (Lonza, Switzerland) supplemented with 10% fetal bovine serum (Gibco), 1% penicillin and 1% streptomycin (Sigma Aldrich, Saint Louis, MO, USA) at 37 °C under an atmosphere of 5% CO2 and 95% air.
(§2) The effect of parent compounds and their derivatives were assessed by (3-(4,5-dimethylthiazol-2-yl)-2,5diphenyl-tetrazolium bromide) MTT assay. […] After a merged sheet of cells developed, the growth media was decanted from the 96-well microtiter and refilled with different concentrations of compounds (µg/mL), and the plate was incubated at 37 °C for 48 h to minimize exposure to the dissolving agent (Supporting Information).
(§3) MTT solution (BIO BASIC CANADA INC) was prepared [5 mg/mL in phosphate buffered saline (PBS)], added to each well and incubated for 4 h, then after removing the media, 200 μL of DMSO was added to each well to solubilize the formazan crystals and the optical density of the formazan product was measured at 560 nm using microplate reader (mindray, MR-96A). The results were calculated as the mean of the three independent experiments. […]
(§4) Determination of sample cytotoxicity on cells (MTT protocol) […]
(§5) well) and incubated at 37°C for 24 hours to develop a complete monolayer sheet.
(§6) 2- Growth medium was decanted from 96 well micro titer plates after confluent sheet of cells were formed, cell monolayer was washed twice with wash media.
(§7) 3- two-fold dilutions of tested sample was made in RPMI medium with 2% serum […]
(§8) 4- 0.1 ml of each dilution was tested in different wells leaving 3 wells as control, receiving only maintenance medium.
(§9) 5- Plate was incubated at 37°C and examined. Cells were checked for any physical signs of toxicity, e.g. partial or complete loss of the monolayer, rounding, shrinkage, […]
(§10) 6- MTT solution was prepared (5mg/ml in PBS) (BIO BASIC CANADA INC).
(§11) 8- 20ul MTT solution were added to each well. Place on a shaking table, 150rpm for 5 minutes, to thoroughly mix the MTT into the media.
(§12) 10) Dump off the media. (dry plate on paper towels to remove residue if necessary. […] 9 ش - ايلعلا هبضهلا - مطقملا / ىسيئرلا لمعملا […]

HepG2 cells = experiment: MTT cell viability assay, HepG2; format: cell-based, human
Procedure: as §1, §2, §3, §4, §5, §6, §7, §8, §9, §10, §11, §12

A549 cells = experiment: MTT cell viability assay, A549; format: cell-based, human
Procedure: as §1, §2, §3, §4, §5, §6, §7, §8, §9, §10, §11, §12

Caco-2 cancer cell line = experiment: MTT cell viability assay, Caco-2; format: cell-based
Summary of the method: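 Cells grown in RPMI 1640 with 10% FBS at 37 °C and 5% CO2 were exposed as 24 h monolayers to two-fold compound dilutions (µg/mL, RPMI with 2% serum) for 48 h at 37 °C. MTT (5 mg/mL in PBS) was added for 4 h, formazan dissolved in DMSO and OD read at 560 nm; values are the mean of three independent experiments.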

PANC-1 cells = experiment: MTT cell viability assay, PANC-1; format: cell-based, human
Procedure: as §1, §2, §3, §4, §5, §6, §7, §8, §9, §10, §11, §12

[1] = MTT cell viability assay on normal Vero cells (selectivity); format: cell-based; settings: African green monkey, Vero cells (normal kidney cells)
Procedure: MCF-7 cells (Human breast adenocarcinoma), HepG2 (human hepatocellular carcinoma), A549 (human lung adenocarcinoma), Caco-2 (colon carcinoma), PANC-1 (human pancreatic cancer), and Vero cells (derived from normal kidney cells) were supplied by (Holding Company for Biological Products and Vaccines VACSERA; Giza, Egypt).
as §2, §3, §4, §5, §6, §7, §8, §9, §10, §11
10) Dump off the media. (dry plate on paper towels to remove residue if necessary. […]

Caco-2 cells = experiment: Cell-cycle analysis by flow cytometry; format: cell-based; settings: Caco-2 cells; for %G0–G1 / %G2/M / %S: cell-cycle distribution after treatment; for %Pre-G1: Pre-G1 = apoptotic population
Summary of the method: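 Caco-2 cells treated with test compounds or DMSO for 24h, then stained with Annexin V-FITC/PI in binding buffer for 5 min at room temperature in the dark. Viable, apoptotic and necrotic fractions and cell-cycle distribution determined by flow cytometry.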

IC50 (MCF-7 cells): 970 µM | IC50 (HepG2 cells; Homo sapiens, HepG2, MTT, 48 h, average of triplicates, read-out: IC50 (μM) ± SD HepG2): 1030 µM | IC50 (HepG2 cells; Homo sapiens, HepG2, MTT report T-4-019-5, Conc. ug/ml, read-out: IC50): 201 µg/mL | IC50 (A549 cells; Homo sapiens, A549, MTT, 48 h, average of triplicates, read-out: IC50 (μM) ± SD A549): 1630 µM | IC50 (A549 cells; Homo sapiens, A549, MTT report T-4-019-5, Conc. ug/ml, read-out: IC50): 317 µg/mL | IC50 (Caco-2 cancer cell line; Homo sapiens, Caco-2, Caco2, MTT report T-4-019-5, Conc. ug/ml, read-out: IC50): 81.2 µg/mL | IC50 (Caco-2 cancer cell line; Homo sapiens, Caco-2, MTT, 48 h, average of triplicates, parent compounds and doxorubicin (Table 2), read-out: IC50 (μM) ± SD Caco-2): 410 µM | IC50 (PANC-1 cells; Homo sapiens, PANC-1, MTT, 48 h, average of triplicates, read-out: IC50 (μM) ± SD PANC-1): 1290 µM | IC50 (PANC-1 cells; Homo sapiens, PANC-1, Panc1, MTT report T-4-019-5, Conc. ug/ml, read-out: IC50): 251 µg/mL
SMILES: O=C(O)/C=C/c1ccc(O)c(O)c1 [Compound 1, Caffeic acid]
Toxicity % (HepG2 cells; HepG2, 15.625 ug/ml): 0.202% | Toxicity % (HepG2 cells; HepG2, 31.25 ug/ml): 0.101% | Toxicity % (HepG2 cells; HepG2, 62.5 ug/ml): 0.5051% | Toxicity % (HepG2 cells; HepG2, 125 ug/ml): 13.64% | Toxicity % (HepG2 cells; HepG2, 250 ug/ml): 72.12% | Toxicity % (HepG2 cells; HepG2, 500 ug/ml): 83.94% | viability at 15.625 µg/mL (HepG2 cells; Homo sapiens, HepG2, 15.625 ug/ml): 99.8% | viability at 31.25 µg/mL (HepG2 cells; Homo sapiens, HepG2, 31.25 ug/ml): 99.9% | viability at 62.5 µg/mL (HepG2 cells; Homo sapiens, HepG2, 62.5 ug/ml): 99.5% | viability at 125 µg/mL (HepG2 cells; Homo sapiens, HepG2, 125 ug/ml): 86.4% | viability at 250 µg/mL (HepG2 cells; Homo sapiens, HepG2, 250 ug/ml): 27.9% | viability at 500 µg/mL (HepG2 cells; Homo sapiens, HepG2, 500 ug/ml): 16.1% | Toxicity % (A549 cells; A549, 15.625 ug/ml): 0.7435% | Toxicity % (A549 cells; A549, 31.25 ug/ml): 0.1239% | Toxicity % (A549 cells; A549, 62.5 ug/ml): 0.9913% | Toxicity % (A549 cells; A549, 125 ug/ml): 3.841% | Toxicity % (A549 cells; A549, 250 ug/ml): 52.91% | Toxicity % (A549 cells; A549, 500 ug/ml): 78.56% | viability at 15.625 µg/mL (A549 cells; Homo sapiens, A549, 15.625 ug/ml): 99.3% | viability at 31.25 µg/mL (A549 cells; Homo sapiens, A549, 31.25 ug/ml): 99.9% | viability at 62.5 µg/mL (A549 cells; Homo sapiens, A549, 62.5 ug/ml): 99% | viability at 125 µg/mL (A549 cells; Homo sapiens, A549, 125 ug/ml): 96.2% | viability at 250 µg/mL (A549 cells; Homo sapiens, A549, 250 ug/ml): 47.1% | viability at 500 µg/mL (A549 cells; Homo sapiens, A549, 500 ug/ml): 21.4% | Toxicity % (Caco-2 cancer cell line; Caco2, 15.625 ug/ml): 0.09606% | Toxicity % (Caco-2 cancer cell line; Caco2, 31.25 ug/ml): 10.47% | Toxicity % (Caco-2 cancer cell line; Caco2, 62.5 ug/ml): 52.83% | Toxicity % (Caco-2 cancer cell line; Caco2, 125 ug/ml): 74.26% | Toxicity % (Caco-2 cancer cell line; Caco2, 250 ug/ml): 79.92% | Toxicity % (Caco-2 cancer cell line; Caco2, 500 ug/ml): 88.09% | viability at 15.625 µg/mL (Caco-2 cancer cell line; Homo sapiens, Caco-2, Caco2, 15.625 ug/ml): 99.9% | viability at 31.25 µg/mL (Caco-2 cancer cell line; Homo sapiens, Caco-2, Caco2, 31.25 ug/ml): 89.5% | viability at 62.5 µg/mL (Caco-2 cancer cell line; Homo sapiens, Caco-2, Caco2, 62.5 ug/ml): 47.2% | viability at 125 µg/mL (Caco-2 cancer cell line; Homo sapiens, Caco-2, Caco2, 125 ug/ml): 25.7% | viability at 250 µg/mL (Caco-2 cancer cell line; Homo sapiens, Caco-2, Caco2, 250 ug/ml): 20.1% | viability at 500 µg/mL (Caco-2 cancer cell line; Homo sapiens, Caco-2, Caco2, 500 ug/ml): 11.9% | viability at 15.625 µg/mL (PANC-1 cells; Homo sapiens, PANC-1, Panc1, 15.625 ug/ml): 100% | viability at 31.25 µg/mL (PANC-1 cells; Homo sapiens, PANC-1, Panc1, 31.25 ug/ml): 101% | viability at 62.5 µg/mL (PANC-1 cells; Homo sapiens, PANC-1, Panc1, 62.5 ug/ml): 99.8% | viability at 125 µg/mL (PANC-1 cells; Homo sapiens, PANC-1, Panc1, 125 ug/ml): 91.8% | viability at 250 µg/mL (PANC-1 cells; Homo sapiens, PANC-1, Panc1, 250 ug/ml): 48.3% | viability at 500 µg/mL (PANC-1 cells; Homo sapiens, PANC-1, Panc1, 500 ug/ml): 29.7% | Toxicity % (PANC-1 cells; Panc1, 15.625 ug/ml): 0% | Toxicity % (PANC-1 cells; Panc1, 31.25 ug/ml): 0% | Toxicity % (PANC-1 cells; Panc1, 62.5 ug/ml): 0.1812% | Toxicity % (PANC-1 cells; Panc1, 125 ug/ml): 8.243% | Toxicity % (PANC-1 cells; Panc1, 250 ug/ml): 51.72% | Toxicity % (PANC-1 cells; Panc1, 500 ug/ml): 70.29% | viability at 48 h, 15.625 ug/ml ([1]; 15.625 ug/ml): 99.1% | viability at 48 h, 31.25 ug/ml ([1]; 31.25 ug/ml): 99% | viability at 48 h, 62.5 ug/ml ([1]; 62.5 ug/ml): 99.3% | viability at 48 h, 125 ug/ml ([1]; 125 ug/ml): 63.6% | viability at 48 h, 250 ug/ml ([1]; 250 ug/ml): 22.9% | viability at 48 h, 500 ug/ml ([1]; 500 ug/ml): 18.1% | %G0–G1 (Caco-2 cells): 46.29 ± 3.1% | %G2/M (Caco-2 cells): 20.49 ± 1.92% | %S (Caco-2 cells): 33.22 ± 1.99% | %G0–G1 (Caco-2 cells; listed as s1): 46.29% | %G2/M (Caco-2 cells; listed as s1): 20.49% | %S (Caco-2 cells; listed as s1): 33.22% | %Pre-G1 (Caco-2 cells): 11.31 ± 0.81% | %Pre-G1 (Caco-2 cells; listed as caffeic acid): 11.31%
